# Test results: patent publication US20030158188A1, “Fused azabicyclic compounds that inhibit vanilloid receptor subtype 1 (VR1) receptor” (priority 2002, published 2003)
# Where a name gives a salt, the structure may show the parent alone.
row,melting point,Structure (SMILES)
1,126 °C,"O=C(NCc1ccc(Br)cc1)Nc1cccc2[nH]ncc12 (as salt: hydrochloride) [Example 89, N-(4-bromobenzyl)-N′-1H-indazol-4-ylurea]"
2,198 °C,"O=C(NCc1ccc(C(F)(F)F)c(F)c1)Nc1cccc2[nH]ccc12 [Example 82, N-[3-fluoro-4-(trifluoromethyl)benzyl]-N′-1H-indol-4-ylurea]"
3,197 °C,"O=C(NCc1ccc(Cl)c(C(F)(F)F)c1)Nc1cccc2[nH]ccc12 [Example 83, 1-(4-Chloro-3-trifluoromethyl-benzyl)-3-(1H-indol-4-yl)-urea]"
4,170 °C,"O=C(NCCc1ccc(Cl)cc1Cl)Nc1cccc2[nH]ccc12 [Example 85, N-[2-(2,4-dichlorophenyl)ethyl]-N′-1H-indol-4-ylurea]"
5,190 °C,"Cc1[nH]c2cccc(NC(=O)NCc3ccc(Br)cc3)c2c1C [Example 88, N-(4-bromobenzyl)-N′-(2,3-dimethyl-1H-indol-4-yl)urea]"

# Further lines, the compound ahead of its results:
row,Structure (SMILES),melting point
1,"O=C(NCc1ccc(Br)cc1)Nc1cccc2[nH]ccc12 [Example 78, N-(4-bromobenzyl)-N′-1H-indol-4-ylurea]",198 °C
2,"O=C(NCc1ccc(Cl)c(Cl)c1)Nc1cccc2[nH]ccc12 [Example 79, N-(3,4-dichlorobenzyl)-N′-1H-indol-4-ylurea]",201 °C
3,"O=C(NCc1ccc(C(F)(F)F)cc1)Nc1cccc2[nH]ccc12 [Example 80, N-1H-indol-4-yl-N′-[4-(trifluoromethyl)benzyl]urea]",178 °C
4,"O=C(NCc1ccc(OC(F)(F)F)cc1)Nc1cccc2[nH]ccc12 [Example 81, N-1H-indol-4-yl-N′-[4-(trifluoromethoxy)benzyl]urea]",177 °C
